Assay results: ChEMBL document CHEMBL5518166, “Exploring thienothiadiazine dioxides as isosteric analogues of benzo- and pyridothiadiazine dioxides in the search of new AMPA and kainate receptor positive allosteric modulators” (Eur J Med Chem, 2024)
Activity calls are given as the source filed them. The calls are words filed in the database; no cut-off is given here.

How the values were obtained:
[1] = Toxicity in NMR1 mouse assessed as pro-convulsant effect at 100 mg/kg measured upto 180 mins; format: organism-based; conditions: in vivo, 3 h
[2] = Toxicity in NMR1 mouse assessed as effect on hypothermia at 100 mg/kg measured upto 180 mins; format: organism-based; conditions: in vivo, 3 h
Rattus norvegicus = experiment: Cognition enhancing effect in Wistar rat assessed as increase in amplitude of initial post-synaptic response at 30 mg/kg, ip pretreated for 1 hr followed by tetanic stimulation and measured for 3 hrs; format: functional, organism-based; conditions: time 4.0 hrs
Mus musculus [3] = experiment: Cognition enhancing effect in CD1 mouse assessed as increase in exploration time spent on new object at 1 mg/kg, po measured after 1 hr by object recognition test (reference value: 35%); format: functional
Mus musculus [4] = experiment: Cognition enhancing effect in CD1 mouse assessed as increase in exploration time spent on new object at 3 mg/kg, po measured after 1 hr by object recognition test (reference value: 35%); format: functional
[5] = molecular target: T1, Glutamate receptor ionotropic, AMPA (Rattus norvegicus) (UniProt P19491+P19492+P19493+P19490); experiment: Positive allosteric modulation at AMPAR in rat Primary embryonic cortical cell assessed as concentration required for 2 fold increase in AMPA induced fluorescence; format: cell-based; conditions: filed as positive allosteric modulator
[6] = molecular target: T1, Glutamate receptor ionotropic, AMPA (Rattus norvegicus); experiment: Positive allosteric modulation at AMPAR in rat Primary embryonic cortical cell assessed as concentration required for 2 fold increase in AMPA induced fluorescence by FDSS fluorescence assay; format: cell-based; conditions: Cerebral cortex cell, filed as positive allosteric modulator
[7] = molecular target: Glutamate receptor ionotropic AMPA (Homo sapiens, UniProt P42261+P42262+P42263+P48058); experiment: Positive allosteric modulation at AMPAR in HEK293 cells expressing GluA2Qi subunit assessed as glutamate induced calcium influx; format: cell-based
[8] = molecular target: Glutamate receptor ionotropic kainate 1 (Homo sapiens) (UniProt P39086); experiment: Positive allosteric modulation at kainate receptor in HEK293 cells expressing GluK1-Q1b assessed as glutamate induced calcium influx by measuring efficacy relative to control; conditions: filed as positive allosteric modulator
Sequence of Glutamate receptor ionotropic kainate 1 (Homo sapiens) (P39086 whole entry, looked up): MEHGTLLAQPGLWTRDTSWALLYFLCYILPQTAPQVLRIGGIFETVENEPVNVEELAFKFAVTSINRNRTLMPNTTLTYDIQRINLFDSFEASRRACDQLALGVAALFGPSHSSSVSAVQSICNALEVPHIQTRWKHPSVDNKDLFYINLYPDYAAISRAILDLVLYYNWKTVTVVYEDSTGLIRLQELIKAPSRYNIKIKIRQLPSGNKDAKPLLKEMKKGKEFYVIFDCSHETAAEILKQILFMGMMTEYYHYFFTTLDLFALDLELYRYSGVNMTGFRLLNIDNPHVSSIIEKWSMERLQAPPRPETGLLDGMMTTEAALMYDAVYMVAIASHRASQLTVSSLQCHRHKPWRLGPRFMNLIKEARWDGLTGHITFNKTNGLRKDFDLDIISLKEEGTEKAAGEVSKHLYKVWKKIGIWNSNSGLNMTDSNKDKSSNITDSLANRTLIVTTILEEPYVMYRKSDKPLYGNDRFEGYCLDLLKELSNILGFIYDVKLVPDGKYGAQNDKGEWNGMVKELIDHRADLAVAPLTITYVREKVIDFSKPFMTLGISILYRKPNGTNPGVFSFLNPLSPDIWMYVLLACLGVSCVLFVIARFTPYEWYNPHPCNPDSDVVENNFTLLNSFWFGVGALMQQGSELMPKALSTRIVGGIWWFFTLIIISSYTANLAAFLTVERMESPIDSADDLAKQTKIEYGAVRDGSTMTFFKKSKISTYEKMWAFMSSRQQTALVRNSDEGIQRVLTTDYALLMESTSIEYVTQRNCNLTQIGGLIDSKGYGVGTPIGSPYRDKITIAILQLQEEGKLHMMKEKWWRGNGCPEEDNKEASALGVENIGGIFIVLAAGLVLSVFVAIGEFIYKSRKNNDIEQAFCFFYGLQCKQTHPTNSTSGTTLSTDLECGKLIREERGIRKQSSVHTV

[9] = molecular target: Glutamate receptor ionotropic kainate 2 (Homo sapiens) (UniProt Q13002); experiment: Positive allosteric modulation at kainate receptor in HEK293 cells expressing GluK2-Q2a assessed as glutamate induced calcium influx by measuring efficacy relative to control; conditions: filed as positive allosteric modulator
Sequence of Glutamate receptor ionotropic kainate 2 (Homo sapiens) (Q13002 whole entry, looked up): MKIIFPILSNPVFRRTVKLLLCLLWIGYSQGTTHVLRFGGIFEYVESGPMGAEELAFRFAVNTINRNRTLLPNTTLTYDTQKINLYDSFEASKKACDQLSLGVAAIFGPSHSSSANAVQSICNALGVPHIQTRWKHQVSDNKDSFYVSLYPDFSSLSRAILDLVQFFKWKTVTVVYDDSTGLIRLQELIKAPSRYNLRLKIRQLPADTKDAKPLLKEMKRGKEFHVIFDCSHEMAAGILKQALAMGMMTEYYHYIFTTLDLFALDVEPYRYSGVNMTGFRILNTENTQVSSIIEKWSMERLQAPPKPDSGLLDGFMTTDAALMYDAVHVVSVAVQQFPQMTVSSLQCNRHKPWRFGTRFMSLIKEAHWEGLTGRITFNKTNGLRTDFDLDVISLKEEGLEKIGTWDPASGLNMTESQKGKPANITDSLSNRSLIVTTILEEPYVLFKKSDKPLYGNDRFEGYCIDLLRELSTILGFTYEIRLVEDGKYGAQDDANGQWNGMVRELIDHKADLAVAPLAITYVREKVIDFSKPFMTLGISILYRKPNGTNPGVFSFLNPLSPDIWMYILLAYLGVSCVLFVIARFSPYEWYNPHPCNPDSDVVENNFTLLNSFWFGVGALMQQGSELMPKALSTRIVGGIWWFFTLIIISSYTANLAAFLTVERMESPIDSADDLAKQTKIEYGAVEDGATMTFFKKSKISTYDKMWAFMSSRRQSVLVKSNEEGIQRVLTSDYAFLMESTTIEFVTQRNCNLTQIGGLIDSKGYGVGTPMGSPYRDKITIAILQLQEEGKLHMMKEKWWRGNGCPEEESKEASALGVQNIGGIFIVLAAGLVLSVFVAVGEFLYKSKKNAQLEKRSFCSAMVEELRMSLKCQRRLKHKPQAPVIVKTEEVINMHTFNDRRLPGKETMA

[10] = molecular target: T1, Glutamate receptor ionotropic, AMPA (Rattus norvegicus); experiment: Positive allosteric modulation at AMPAR in rat Primary embryonic cortical cell assessed as concentration required for 2 fold increase in AMPA induced fluorescence by FlipR assay; format: cell-based; conditions: filed as positive allosteric modulator
[11] = molecular target: T1, Glutamate receptor ionotropic, AMPA (Rattus norvegicus); experiment: Positive allosteric modulation of rat cortex AMPAR expressed in xenopus oocytes assessed as concentration required for 2 fold increase in AMPA induced […]; format: cell-based; conditions: Oocyte, filed as positive allosteric modulator
[12] = molecular target: Glutamate receptor ionotropic AMPA (Homo sapiens) (UniProt P48058+P42263+P42262+P42261); experiment: Positive allosteric modulation at AMPAR in HEK293 cells expressing GluA2 assessed as glutamate induced calcium influx by measuring efficacy relative to control; format: cell-based; conditions: filed as positive allosteric modulator
[13] = Toxicity in NMR1 mouse assessed as effect on hypothermia at 30 mg/kg measured upto 180 mins; format: organism-based; conditions: in vivo, 3 h

| Compound | EC50 [7] | Efficacy [8] | Efficacy [9] | EC [10] | further results |
| --- | --- | --- | --- | --- | --- |
| O=S1(=O)NC2CCCN2c2cc(Cl)sc21 (centres undefined) | – | – | – | – | Activity [1]: Non-Toxic; Activity [2]: Non-Toxic; Activity (Rattus norvegicus): Active; Activity (Mus musculus [3]): 82%; Activity (Mus musculus [4]): 69% |
| O=S1(=O)CCC(C2CC2)c2ccc(F)cc21 (centres undefined) | – | – | – | – | EC [5]: 2.2 µM |
| CC1N(CC(F)F)c2cc(Cl)sc2S(=O)(=O)N1C (centres undefined) | 31.5 µM | 50% | 60% | – | EC [6]: 1.2 µM |
| C=CCN1CN(C)S(=O)(=O)c2sc(Cl)cc21 | 76.5 µM | – | – | 80.4 µM | – |
| O=S1(=O)N[C@H]2CCCN2C2CCCCC21 (some centres undefined) | – | – | – | – | EC [11]: 24.6 µM |
| CN1CN(CC(F)F)c2cc(Cl)sc2S1(=O)=O | 39.9 µM | – | – | – | EC [6]: 24.5 µM |
| O=S1(=O)NCN(C2CC2)c2ccc(F)cc21 | – | – | – | – | Activity [12]: 100%; EC [5]: 0.27 µM |
| O=S1(=O)NCN(C2CC2)c2cc(Cl)sc21 | 4.7 µM | 50% | 80% | – | EC [6]: 0.24 µM; Activity [13]: Toxic; Activity [12]: 126% |
| CCN1c2cc(Cl)sc2S(=O)(=O)N(C)C1C (centres undefined) | 24.6 µM | 50% | 60% | 6.4 µM | – |
| CN1C2CCCN2c2cc(Cl)sc2S1(=O)=O (centres undefined) | > 100 µM | – | – | 40.1 µM | – |
| C=CCN1CNS(=O)(=O)c2sc(Cl)cc21 | 26.9 µM | 112% | 80% | 18.5 µM | Activity [12]: 126% |
